Measurements from the NIST ThermoML archive (doi:10.1007/s10765-009-0622-2).

Legend:
[1] = 298.15 K; 101.33 kPa; Liquid
[2] = xn = mol fraction of the nth substance listed; settings: 298.15 K, 101 kPa, Liquid

Cc1ccccc1C [1,2-dimethylbenzene]
[1]
Settings | mass density [kg/m3] | viscosity [mPa·s]
– | 874.89 | 0.7506

Cc1ccccc1C [1,2-dimethylbenzene] + CCCCCC
[2]
Settings | mass density [kg/m3] | viscosity [mPa·s]
x2 = 0.052 | 863.09 | 0.678
x2 = 0.1413 | 842.86 | 0.5944
x2 = 0.2482 | 818.74 | 0.5239
x2 = 0.2901 | 809.33 | 0.493
x2 = 0.355 | 794.79 | 0.462
x2 = 0.4004 | 784.66 | 0.4425
x2 = 0.4815 | 766.65 | 0.4126
x2 = 0.51 | 760.35 | 0.4031
x2 = 0.5856 | 743.71 | 0.3816
x2 = 0.6351 | 732.88 | 0.3711
x2 = 0.6753 | 724.12 | 0.3632
x2 = 0.7858 | 700.23 | 0.3344
x2 = 0.8317 | 690.38 | 0.3264
x2 = 0.9014 | 675.52 | 0.314

Cc1cccc(C)c1 [1,3-dimethylbenzene]
[1]
Settings | mass density [kg/m3] | viscosity [mPa·s]
– | 859.78 | 0.583

Cc1cccc(C)c1 [1,3-dimethylbenzene] + CCCCCC
[2]
Settings | viscosity [mPa·s]
x2 = 0.1329 | 0.4984
x2 = 0.1519 | 0.4896
x2 = 0.2717 | 0.4418
x2 = 0.339 | 0.4221
x2 = 0.4303 | 0.3978
x2 = 0.448 | 0.3935
x2 = 0.5734 | 0.3652
x2 = 0.643 | 0.3513
x2 = 0.6663 | 0.3473
x2 = 0.719 | 0.3389
x2 = 0.8049 | 0.3238
x2 = 0.873 | 0.3175
x2 = 0.9278 | 0.3115

Cc1ccc(C)cc1 [1,4-dimethylbenzene]
[1]
Settings | mass density [kg/m3] | viscosity [mPa·s]
– | 856.51 | 0.5999

Cc1ccc(C)cc1 [1,4-dimethylbenzene] + CCCCCC
[2]
Settings | mass density [kg/m3] | viscosity [mPa·s]
x2 = 0.0423 | 847.8 | 0.566
x2 = 0.1073 | 834.45 | 0.5235
x2 = 0.2137 | 812.6 | 0.4702
x2 = 0.2956 | 795.81 | 0.4378
x2 = 0.3769 | 779.21 | 0.4119
x2 = 0.4201 | 770.42 | 0.3998
x2 = 0.5355 | 747.03 | 0.3717
x2 = 0.562 | 741.69 | 0.3654
x2 = 0.6427 | 725.47 | 0.3502
x2 = 0.7455 | 704.95 | 0.3324
x2 = 0.7909 | 695.94 | 0.3256
x2 = 0.8792 | 678.48 | 0.313
x2 = 0.9599 | 662.62 | 0.3024

CCc1ccccc1 [ethylbenzene]
[1]
Settings | mass density [kg/m3] | viscosity [mPa·s]
– | 862.37 | 0.6369

CCc1ccccc1 [ethylbenzene] + CCCCCC
[2]
Settings | viscosity [mPa·s]
x2 = 0.0437 | 0.6071
x2 = 0.0884 | 0.5751
x2 = 0.183 | 0.5169
x2 = 0.2262 | 0.4791
x2 = 0.2774 | 0.4672
x2 = 0.3283 | 0.445
x2 = 0.3784 | 0.4234
x2 = 0.4359 | 0.4047
x2 = 0.488 | 0.3902
x2 = 0.5429 | 0.3761
x2 = 0.5916 | 0.3654
x2 = 0.6534 | 0.3527
x2 = 0.705 | 0.3426
x2 = 0.7644 | 0.3326
x2 = 0.809 | 0.325
x2 = 0.8882 | 0.313
x2 = 0.9478 | 0.3046

CCCCCC [hexane]
[1]
Settings | mass density [kg/m3] | viscosity [mPa·s]
– | 654.7 | 0.2973
